Measurements from patent US20050119337A1, “Methods of application of Schisandrin B in the preparation of anticancer medications” (priority 2003, published 2005).
Like-named read-outs stand apart in the source and are kept apart here.

Key:
Format in all cases: cell-based
[1] = system: human epidermoid carcinoma MDR cell line KBV200; assay: Reversal of drug resistance of KBV200, MTT assay, 72 h; conditions: for IC50: Homo sapiens, read-out: IC50 Control; for RF (Schisandrin B): IC50 in the absence / IC50 in the presence of Schisandrin B (10 μg/ml); for RF (Schisandrin B) / RF (verapamil) / IC50 Schisandrin B / IC50 verapamil: KBV200; for RF (verapamil): IC50 in the absence / IC50 in the presence of verapamil (6 μg/ml); for IC50 Schisandrin B: anticancer drug in the presence of Schisandrin B (10 μg/ml); for IC50 verapamil: anticancer drug in the presence of verapamil (6 μg/ml)
Description: (§1) In this embodiment, the IC50 of anticancer drugs in the presence or absence of Schisandrin B toward MDR cells was determined.
(§2) MTT assays were carried out in triplicate against human leukemia MDR cell line K562/adr and human epidermoid carcinoma MDR cell line KBV200. MTT assays as described previously (X. Hu, et al., Chemotherapy 41:296-305 (1995)) were used to determine the cytotoxicity of each anticancer drug in the presence or absence of Schisandrin B or verapmil.
Cells were treated with specific anticancer drugs as set forth therein. […] “SchB” represents cells treated with anticancer drugs in the presence of Schisandrin B (10 μg/ml).

[2] = system: human leukemia MDR cell line K562/adr; assay: Reversal of drug resistance of K562/adr, MTT assay, 72 h; conditions: for IC50: Homo sapiens, read-out: IC50 Control; for RF (Schisandrin B): IC50 in the absence divided by IC50 in the presence of Schisandrin B (10 μg/ml); for RF (verapamil): IC50 in the absence divided by IC50 in the presence of verapamil (6 μg/ml); for IC50 Schisandrin B: anticancer drug in the presence of Schisandrin B (10 μg/ml); for IC50 verapamil: anticancer drug in the presence of verapamil (6 μg/ml)
Description: as §1, §2
Cells were treated with specific anticancer drugs as set forth therein. “Ctrl” represents control cells treated with anticancer drugs in the absence of Schisandrin B or verapamil. “SchB” represents cells treated with anticancer drugs in the presence of Schisandrin B (10 μg/ml).

K562/vcr = assay: Reversal of drug resistance, MTT assay, 48 h; conditions: for IC50: Homo sapiens, read-out: IC50 Control; for IC50 / IC50 Schisandrin B: 48 h; for RF (Reversal Folds): IC50 in the absence of Schisandrin B divided by IC50 in the presence of Schisandrin B (10 μg/ml); for IC50 Schisandrin B: anticancer drug toward K562/vcr in the presence of Schisandrin B (10 μg/ml)
Description: To illustrate a method for reversal of drug resistance by application of Schisandrin B, cell lines K562/adr, K562/vcr (X. […] H. […] Cells were cultured in RPMI-1640 medium containing 10% fetal calf serum. […] The logarithmic growing cells were seeded into a 96 well plate (20,000 cells/well). Specific anticancer drugs (set forth in Table 1) and Schisandrin B in combination were added into the wells containing the select cell lines. […] Cell viability was assessed by MTT assays as described in X.

[3] = anticancer drug alone, KBV200, 72 h
[4] = anticancer drug alone, K562/adr, 72 h
[5] = anticancer drug toward K562/vcr in the absence of Schisandrin B

Row | Compound | IC50 [1, 3] | RF (Schisandrin B) [1] | RF (verapamil) [1] | IC50 Schisandrin B [1] | IC50 verapamil [1] | IC50 [2, 4] | RF (Schisandrin B) ([2]; K562/adr) | RF (verapamil) ([2]; K562/adr) | IC50 Schisandrin B ([2]; K562/adr) | IC50 verapamil ([2]; K562/adr) | IC50 (K562/vcr; [5]) | RF (Reversal Folds) (K562/vcr) | IC50 Schisandrin B (K562/vcr) | IC50 Control [1, 3] | IC50 Control [2, 4] | IC50 ([1]; KBv200, 72 h) | IC50 ([2]; K562/Adr, 72 h) | IC50 (K562/vcr; K562/VCR)
1 | O=C1c2c(O)ccc(O)c2C(=O)c2c(NCCNCCO)ccc(NCCNCCO)c21 [Mitoxantron, mitoxantron] | 0.0906 ± 0.0456 µg/mL | >9.06 | >9.06 | <0.01 µg/mL | <0.01 µg/mL | 0.105 ± 0.0356 µg/mL | >10.52 | >10.52 | <0.01 µg/mL | <0.01 µg/mL | 0.79 ± 0.33 µg/mL | 4.0 | 0.20 ± 0.06 µg/mL |  |  |  |  | 
2 | COc1cccc2c1C(=O)c1c(O)c3c(c(O)c1C2=O)C[C@@](O)(C(=O)CO)C[C@@H]3O[C@H]1C[C@H](N)[C@@H](O)[C@H](C)O1 [Epirubicin, epirubicin] | 0.988 ± 0.152 µg/mL | 9.56 | 8.06 | 0.1033 ± 0.0545 µg/mL | 0.1226 ± 0.082 µg/mL | 1.32 ± 0.322 µg/mL | 4.35 | 5.95 | 0.3033 ± 0.0812 µg/mL | 0.2218 ± 0.0909 µg/mL | 2.56 ± 0.84 µg/mL | 5.81 | 0.44 ± 0.14 µg/mL |  |  |  |  | 
3 | CC(=O)O[C@H]1C(=O)[C@@]2(C)[C@H]([C@H](OC(=O)c3ccccc3)[C@]3(O)C[C@H](OC(=O)[C@H](O)[C@@H](NC(=O)c4ccccc4)c4ccccc4)C(C)=C1C3(C)C)[C@]1(OC(C)=O)CO[C@@H]1C[C@@H]2O [Taxol, taxol] | 0.089 ± 0.0079 µg/mL | 2.82 | 2.71 | 0.0316 ± 0.0019 µg/mL | 0.0329 ± 0.0079 µg/mL | 0.342 ± 0.132 µg/mL | 17.89 | 23.94 | 0.01913 ± 0.0208 µg/mL | 0.0143 ± 0.0093 µg/mL |  |  |  |  |  |  |  | 
4 | CC[C@@]1(O)C(=O)OCc2c1cc1n(c2=O)Cc2cc3cc(O)ccc3nc2-1 [Hydroxycamptothecine] |  | 3.07 | 3.48 | 0.0527 ± 0.0613 µg/mL | 0.0468 ± 0.0254 µg/mL |  | 8.84 | 8.53 | 0.0417 ± 0.062 µg/mL | 0.0432 ± 0.0205 µg/mL |  |  |  | 0.1618 ± 0.1501 µg/mL | 0.3688 ± 0.0875 µg/mL |  |  | 
5 | COc1cccc2c1C(=O)c1c(O)c3c(c(O)c1C2=O)C[C@@](O)(C(C)=O)C[C@@H]3O[C@H]1C[C@H](N)[C@H](O)[C@H](C)O1 [Daunorubicin, daunorubicin] |  | 3.34 | 5.49 | 0.0913 ± 0.003 µg/mL | 0.0555 ± 0.0175 µg/mL |  | 5.16 | 6.38 | 0.0977 ± 0.063 µg/mL | 0.0791 ± 0.0313 µg/mL |  | 40.9 | 0.011 ± 0.0001 µg/mL |  |  | 0.305 ± 0.0728 µg/mL | 0.505 ± 0.0728 µg/mL | 0.45 ± 0.25 µg/mL
6 | COC(=O)C[C@](O)(CCCC(C)(C)O)C(=O)O[C@@H]1C(OC)=C[C@]23CCCN2CCc2cc4c(cc2[C@H]13)OCO4 [Homoharringtonine] | 0.526 ± 0.199 µg/mL | 4.94 | 4.74 | 0.1064 ± 0.0812 µg/mL | 0.1108 ± 0.0076 µg/mL | 0.428 ± 0.108 µg/mL | 4.44 | 6.1 | 0.0964 ± 0.0312 µg/mL | 0.0701 ± 0.0042 µg/mL | 0.55 ± 0.02 µg/mL | 11 | 0.050 ± 0.01 µg/mL |  |  |  |  | 
7 | CN(Cc1cnc2nc(N)nc(N)c2n1)c1ccc(C(=O)N[C@@H](CCC(=O)O)C(=O)O)cc1 [Methotrexate, methotrexate] |  |  |  |  |  |  |  |  |  |  | > 10 µg/mL |  | >10 µg/mL |  |  |  |  | 
8 | CC[C@]1(O)C[C@H]2CN(CCc3c([nH]c4ccccc34)[C@@](C(=O)OC)(c3cc4c(cc3OC)N(C=O)[C@H]3[C@@](O)(C(=O)OC)[C@H](OC(C)=O)[C@]5(CC)C=CCN6CC[C@]43[C@@H]65)C2)C1 [Vincristine, vincristine] | > 20 µg/mL | 127.2 | 20.26 | 0.1572 ± 0.0946 µg/mL | 0.9872 ± 0.01555 µg/mL | 0.916 ± 0.238 µg/mL | 6.2 | 10.51 | 0.1486 ± 0.0554 µg/mL | 0.0872 ± 0.0236 µg/mL | > 20 µg/mL | >14.9 | 1.34 ± 0.08 µg/mL |  |  |  |  | 
